From patent publication US20150307938A1, “METHOD TO IDENTIFY A NOVEL CLASS OF IMMUNOLOGIC ADJUVANTS” (Lancell, L.L.C., priority 2011, published 2015)

Assays:
[1] = tested on: Fluzone; set-up: species or system C57BL/6 mice; conditions: mouse, in vivo
[2] = tested on: skin; assay: Affymetrix microarray of skin, DBP-4 hr and analogs vs. untreated; gene selection by log-2 fold change, Wilcoxon, Kendall tau (Tables 8, 9); type: in vivo, mouse
[3] = tested on: skin dendritic cells; assay: Flow cytometric analysis of Ahr−/− response to topical DBP; conditions: topical application

CC12CCC(CC1=O)C2(C)C (stereo not drawn) [camphor]
HAI titer / adjuvant effect with the same dose of Fluzone [1]: improved

CCOC(=O)c1ccccc1C(=O)OCC [DEP, diethylphthalate]
Log2 Expression Level ([2]; gene #1 of Table 8): 5.52
Log2 Expression Level ([2]; gene #2 of Table 8): 7.18
Log2 Expression Level ([2]; gene #3 of Table 8): 8.98
Log2 Expression Level ([2]; gene #4 of Table 8): 8.98
Log2 Expression Level ([2]; gene #5 of Table 8): 6.10
Log2 Expression Level ([2]; gene #6 of Table 8): 7.14
Log2 Expression Level ([2]; gene #7 of Table 8): 6.55
Log2 Expression Level ([2]; gene #8 of Table 8): 7.14
Log2 Expression Level ([2]; gene #9 of Table 8): 7.14
Log2 Expression Level ([2]; gene #10 of Table 8): 7.14
Log2 Expression Level ([2]; gene #11 of Table 8): 6.55
Log2 Expression Level ([2]; gene #12 of Table 8): 6.55
Log2 Expression Level ([2]; gene #13 of Table 8): 6.55
Log2 Expression Level ([2]; gene #14 of Table 8): 4.71
Log2 Expression Level ([2]; gene #15 of Table 8): 4.71
Log2 Expression Level ([2]; gene #16 of Table 8): 7.54
Log2 Expression Level ([2]; gene #17 of Table 8): 9.32
Log2 Expression Level ([2]; gene #18 of Table 8): 9.32
Log2 Expression Level ([2]; gene #19 of Table 8): 8.41
Log2 Expression Level ([2]; gene #20 of Table 8): 8.85
Log2 Expression Level ([2]; gene #21 of Table 8): 8.77
Log2 Expression Level ([2]; gene #22 of Table 8): 5.30
Log2 Expression Level ([2]; gene #23 of Table 8): 6.03
Log2 Expression Level ([2]; gene #24 of Table 8): 7.92
Log2 Expression Level ([2]; gene #25 of Table 8): 7.92
Log2 Expression Level ([2]; gene #26 of Table 8): 7.51
Log2 Expression Level ([2]; gene #27 of Table 8): 7.51
Log2 Expression Level ([2]; gene #28 of Table 8): 7.51
Log2 Expression Level ([2]; gene #29 of Table 8): 5.79
Log2 Expression Level ([2]; gene #30 of Table 8): 8.76
Log2 Expression Level ([2]; gene #31 of Table 8): 8.76
Log2 Expression Level ([2]; gene #32 of Table 8): 8.76
Log2 Expression Level ([2]; gene #33 of Table 8): 5.34
Log2 Expression Level ([2]; gene #34 of Table 8): 6.85
Log2 Expression Level ([2]; gene #35 of Table 8): 6.85
Log2 Expression Level ([2]; gene #36 of Table 8): 8.98
Log2 Expression Level ([2]; gene #37 of Table 8): 8.98
Log2 Expression Level ([2]; gene #38 of Table 8): 8.98
Log2 Expression Level ([2]; gene #39 of Table 8): 7.28
Log2 Expression Level ([2]; gene #40 of Table 8): 7.39
Log2 Expression Level ([2]; gene #41 of Table 8): 7.54
Log2 Expression Level ([2]; gene #42 of Table 8): 7.18
Log2 Expression Level ([2]; gene #43 of Table 8): 7.18
Log2 Expression Level ([2]; gene #44 of Table 8): 7.54
Log2 Expression Level ([2]; gene #45 of Table 8): 7.18
Log2 Expression Level ([2]; gene #46 of Table 8): 7.54
Log2 Expression Level ([2]; gene #47 of Table 8): 8.45
Log2 Expression Level ([2]; gene #48 of Table 8): 8.45
Log2 Expression Level ([2]; gene #49 of Table 8): 8.45
Log2 Expression Level ([2]; gene #50 of Table 8): 9.67
Log2 Expression Level ([2]; gene #51 of Table 8): 7.95
Log2 Expression Level ([2]; gene #52 of Table 8): 9.60
Log2 Expression Level ([2]; gene #53 of Table 8): 8.70
Log2 Expression Level ([2]; gene #54 of Table 8): 10.81
Log2 Expression Level ([2]; gene #55 of Table 8): 6.30
Log2 Expression Level ([2]; gene #56 of Table 8): 9.40
Log2 Expression Level ([2]; gene #57 of Table 8): 8.76
Log2 Expression Level ([2]; gene #58 of Table 8): 8.74
Log2 Expression Level ([2]; gene #59 of Table 8): 7.93
Log2 Expression Level ([2]; gene #60 of Table 8): 7.26
Log2 Expression Level ([2]; gene #61 of Table 8): 12.58
Log2 Expression Level ([2]; gene #62 of Table 8): 7.63
Log2 Expression Level ([2]; gene #63 of Table 8): 10.52
Log2 Expression Level ([2]; gene #64 of Table 8): 11.04
Log2 Expression Level ([2]; gene #65 of Table 8): 6.97
Log2 Expression Level ([2]; gene #66 of Table 8): 7.90
Log2 Expression Level ([2]; gene #67 of Table 8): 4.52
Log2 Expression Level ([2]; gene #68 of Table 8): 8.29
Log2 Expression Level ([2]; gene #69 of Table 8): 5.13
Log2 Expression Level ([2]; gene #70 of Table 8): 4.38
Log2 Expression Level ([2]; gene #71 of Table 8): 7.95
Log2 Expression Level ([2]; gene #72 of Table 8): 7.61
Log2 Expression Level ([2]; gene #73 of Table 8): 6.09
Log2 Expression Level ([2]; gene #74 of Table 8): 7.13
Log2 Expression Level ([2]; gene #75 of Table 8): 8.41
Log2 Expression Level ([2]; gene #76 of Table 8): 4.13
Log2 Expression Level ([2]; gene #77 of Table 8): 9.75
Log2 Expression Level ([2]; gene #78 of Table 8): 10.71
Log2 Expression Level ([2]; gene #79 of Table 8): 6.51
Log2 Expression Level ([2]; gene #80 of Table 8): 12.79
Log2 Expression Level ([2]; gene #81 of Table 8): 5.69
Log2 Expression Level ([2]; gene #82 of Table 8): 4.90
Log2 Expression Level ([2]; gene #83 of Table 8): 7.87
Log2 Expression Level ([2]; gene #84 of Table 8): 7.51
Log2 Expression Level ([2]; gene #85 of Table 8): 4.61
Log2 Expression Level ([2]; gene #86 of Table 8): 6.60
Log2 Expression Level ([2]; gene #87 of Table 8): 7.01
Log2 Expression Level ([2]; gene #88 of Table 8): 5.04
Log2 Expression Level ([2]; gene #89 of Table 8): 5.15
Log2 Expression Level ([2]; gene #90 of Table 8): 10.08
Log2 Expression Level ([2]; gene #91 of Table 8): 6.27
Log2 Expression Level ([2]; gene #92 of Table 8): 7.41
Log2 Expression Level ([2]; gene #93 of Table 8): 8.87
Log2 Expression Level ([2]; gene #94 of Table 8): 7.83
Log2 Expression Level ([2]; gene #95 of Table 8): 5.79
Log2 Expression Level ([2]; gene #96 of Table 8): 6.84
Log2 Expression Level ([2]; gene #97 of Table 8): 5.27
Log2 Expression Level ([2]; gene #98 of Table 8): 5.94
Log2 Expression Level ([2]; gene #99 of Table 8): 9.42
Log2 Expression Level ([2]; gene #100 of Table 8): 7.53

O=[N+]([O-])c1ccc(F)c([N+](=O)[O-])c1 [dinitrofluorobenzene, reference compound]
skin dendritic cell response in AhR−/− mice [3]: severely impaired
